Experiment [1] concerns the target T1, hMAT2A (Homo sapiens, UniProt P31153). The experiment in a line: Phosphate Sensor Fluorescence Assay (MAT2A enzyme inhibition). Format: biochemical. On the set-up: Human MAT2A: Cepter, amino acids 1-395; purchased Cepter clone ID 329, lot 00023-123; clone ID 334, lot 00023-148. The following applies: L-methionine 500 uM, ATP 500 uM, 1 hour room temperature. The protocol:
(§1) The ability of the compound of present disclosure to inhibit MAT2A enzyme was determined using the Malachite Green or Phosphate Sensor Fluorescence Assay described below.
B. Phosphate Sensor Fluorescence Assay
MAT2A enzyme is incubated with a test compound in DMSO or DMSO and its substrates (L-methionine and ATP) in a microtiter plate. The enzymatic reaction is stopped by the addition of Working Phosphate Sensor Mixture. The plate is analyzed for fluorescence at 450 nm.
Test compounds or DMSO were added to the appropriate well suing D300e digital dispenser. 5 μl/well of Assay Buffer was added to the wells corresponding to the negative control and 5 μl/well of MAT2A was added to all the wells except for those corresponding to the negative control. After incubating the plate at room temperature for 15 minutes, 5 μl/well of the 1 mM L-methionine/1 mM ATP mixture was added to all wells. The plate was centrifuged at 1000 rpm for 1 minute and then incubated at room temperature for 1 hour. 5 μl of the Working Phosphate Sensor Mixture was added to all wells and the plate was centrifuged at 1000 rpm for 1 minute. The plate was read for fluorescence at 450 nm after exciting at 430 nm.
Percent inhibition was calculated in Chemical and Biological Information System (CBIS), (ChemInnovation Software Inc.). […]

The target of experiment [2] is T1, hMAT2A. The experiment in a line: Malachite Green Assay (MAT2A enzyme inhibition). Format: biochemical. More on the design: amino acids 1-395; purchased Cepter. The following applies: hMAT2A 50 nM, substrates 500 uM each, reaction time 1 hour, 23° C. The protocol:
as §1
L-methionine Substrate: Alfa Aesar catalog #J61904
ATP Substrate: Alfa Aesar cat #J60336
Malachite Green Detection Reagent: Millipore Sigma catalog #MAK307-1KT
Assay buffer: 50 mM Tris, pH 7.5/50 mM KCl/10 mM MgCl2/0.01% Brij-35/1 mM DTT/0.1% BGG
The plate was centrifuged at 1000 rpm for 1 minute and then incubated at room temperature for 1 hour. 5 μL of malachite green detection reagent was added to all the test wells and the plate was centrifuged at 1000 rpm for 1 minute and then incubated at room temperature for 30 minutes. The plate was read for absorbance at 620 nm on a plate reader (e.g., Infinite M1000).

T1 sequence (P31153 whole entry, the tested form may be a part): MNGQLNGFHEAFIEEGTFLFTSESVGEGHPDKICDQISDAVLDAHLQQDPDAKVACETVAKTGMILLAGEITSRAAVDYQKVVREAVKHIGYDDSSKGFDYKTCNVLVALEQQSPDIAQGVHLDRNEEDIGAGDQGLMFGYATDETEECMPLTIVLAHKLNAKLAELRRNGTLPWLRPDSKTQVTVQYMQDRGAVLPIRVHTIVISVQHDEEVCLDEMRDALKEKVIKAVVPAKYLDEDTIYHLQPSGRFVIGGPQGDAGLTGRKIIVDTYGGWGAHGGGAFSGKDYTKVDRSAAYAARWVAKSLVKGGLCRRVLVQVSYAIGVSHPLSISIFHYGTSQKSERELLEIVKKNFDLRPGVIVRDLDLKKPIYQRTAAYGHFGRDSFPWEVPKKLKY

For the molecule “1[2-(difluoromethoxy)(3-pyridyl)]-7- cyclopropyl-4-[(cyclopropylmethyl)- amino]hydroquinazolin-2-one [Example 416]”, the IC50 (usually the point on the concentration scale where inhibition reaches its midpoint) against hMAT2A [1] (class symbols) is less than 0.2 µM. Take “7-chloro-1-(2-fluoro-3- metho xyphenyl)-4- hydroxyhydroquinazolin-2-one [Example 332]”: at hMAT2A [1] (numeric bound), the IC50 was more than 10 µM. For `Nc1nc(=O)n(-c2ccccc2)c2cc(Cl)ccc12` [Example 59, 4-amino-7-chloro-1-phenylquinazolin-2(1H)-one], at hMAT2A [2], the IC50 was in the range of 1 to 10 µM.

These data come from US20260217709A1, “2-OXOQUINAZOLINE DERIVATIVES AS METHIONINE ADENOSYLTRANSFERASE 2A INHIBITORS” (IDEAYA BIOSCIENCES, INC., priority 2018, published 2026).
